# Assay results: ChEMBL document CHEMBL1201862, “PubChem BioAssay data set” (2004)
#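 How tested: cells in 96-well plates exposed to compound for 48 hours at five concentrations. At the GI50, growth is halved.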 Active and inactive are the calls of the source. No stated cut-off is given here; in the data, active = GI50 up to about 1.1 µM and inactive = higher.
# Assays:
# Test in all cases: NCI tumour cell line growth inhibition, 48 h
# HOP-18 = system: HOP-18
# KM-20L2 = system: KM-20L2
# LXFL 529 = system: LXFL 529
# M19-MEL = system: M19-MEL
# RXF 631 = system: RXF 631
# SNB-78 = system: SNB-78
# XF498 = system: XF498
# DLD-1 = system: DLD-1
# DMS-273 = system: DMS-273
SMILES,GI50 (HOP-18),GI50 (KM-20L2),GI50 (LXFL 529),GI50 (M19-MEL),GI50 (RXF 631),GI50 (SNB-78),GI50 (XF498),GI50 (DLD-1),GI50 (DMS-273)
O=C1c2ccccc2C(=O)c2c(NCCCNCCO)ccc(NCCCNCCO)c21,5.01 µM (inactive),5.51 µM (inactive),3.85 µM (inactive),4.93 µM (inactive),17.8 µM (inactive),8.32 µM (inactive),4.67 µM (inactive),–,–
c1ccc2c(c1)CCc1c(-c3ccncc3)n[nH]c1-2,–,23.6 µM (inactive),23.7 µM (inactive),21.4 µM (inactive),> 10 µM (inactive),29.6 µM (inactive),0.583 µM (active),41.9 µM (inactive),22.9 µM (inactive)
O=C(O)C1=C(C(=O)Nc2ccccc2)C2C=CC1C2 (stereo not drawn),> 100 µM (inactive),> 100 µM (inactive),> 100 µM (inactive),> 100 µM (inactive),–,> 100 µM (inactive),> 100 µM (inactive),> 100 µM (inactive),> 100 µM (inactive)
COc1cc2cc3c4c(cc(OC)c(OC)c4c2cc1OC)CCN3C(=O)N(C)C,–,58.2 µM (inactive),77.4 µM (inactive),> 100 µM (inactive),–,> 100 µM (inactive),–,> 100 µM (inactive),89.1 µM (inactive)
OC1(c2ccccc2)OC(C#Cc2ccccc2)(c2ccccc2)c2ccccc21 (stereo not drawn),–,3.33 µM (inactive),6.22 µM (inactive),3.23 µM (inactive),3.13 µM (inactive),6.98 µM (inactive),7.26 µM (inactive),3.06 µM (inactive),3.4 µM (inactive)
O=C1C(O)=C(CCCc2ccc(Oc3ccccc3)cc2)C(=O)c2ccccc21,–,31.3 µM (inactive),4.98 µM (inactive),7.13 µM (inactive),–,28.1 µM (inactive),9.02 µM (inactive),10.4 µM (inactive),3.89 µM (inactive)
Cc1cccc(C)c1NC(=O)C(C#N)C1=C(Cl)C(=O)c2ccccc2C1=O (stereo not drawn),12.7 µM (inactive),24.1 µM (inactive),16.1 µM (inactive),4.55 µM (inactive),15.4 µM (inactive),23.4 µM (inactive),15.5 µM (inactive),8.15 µM (inactive),30.5 µM (inactive)
CCOC(=O)c1c2cccccc2n2c(=O)cc(C)nc12,–,> 100 µM (inactive),> 100 µM (inactive),–,–,> 100 µM (inactive),–,–,> 100 µM (inactive)
O=C(CC(=O)c1ccccc1)C(=O)Nc1ccc(Cl)cc1,> 100 µM (inactive),> 100 µM (inactive),> 100 µM (inactive),–,–,> 100 µM (inactive),> 100 µM (inactive),> 58.9 µM (inactive),> 56.5 µM (inactive)
CC(C)(C)c1cc(CCC(=O)Nc2ccc(Cl)cc2Cl)nc(N)n1,> 100 µM (inactive),> 100 µM (inactive),> 100 µM (inactive),> 100 µM (inactive),> 100 µM (inactive),> 100 µM (inactive),–,> 100 µM (inactive),–
O=C1CNS(=O)(=O)N1,–,–,> 100 µM (inactive),> 100 µM (inactive),–,> 100 µM (inactive),> 100 µM (inactive),> 100 µM (inactive),> 100 µM (inactive)
COc1cc(OC(=O)c2c(O)cc(O)c(O)c2C)cc(C)c1C(=O)Oc1cc(C)c(C(=O)O)c(O)c1,> 100 µM (inactive),> 100 µM (inactive),> 100 µM (inactive),> 100 µM (inactive),> 100 µM (inactive),> 100 µM (inactive),> 100 µM (inactive),> 100 µM (inactive),> 100 µM (inactive)
O=C(/C=C/c1ccccc1F)c1ccc(Cl)c(Cl)c1,16.4 µM (inactive),36.3 µM (inactive),18.3 µM (inactive),24 µM (inactive),> 53.7 µM (inactive),> 69.3 µM (inactive),28.5 µM (inactive),23.9 µM (inactive),35.1 µM (inactive)
Cc1ccc(NC(=O)CC2SC(Nc3cccc(Cl)c3C)=NC2=O)cc1 (stereo not drawn),–,70.8 µM (inactive),32.4 µM (inactive),71 µM (inactive),> 100 µM (inactive),60.7 µM (inactive),46.2 µM (inactive),48.8 µM (inactive),> 100 µM (inactive)
CC1CCCC(C(=O)/C(=C/c2cccc(Cl)c2)C(=O)C(=O)O)C1 (stereo not drawn),91 µM (inactive),25.9 µM (inactive),19.7 µM (inactive),18.7 µM (inactive),–,55.2 µM (inactive),–,20 µM (inactive),34.8 µM (inactive)
COc1ccccc1NC(=O)C1=C(C)NC(C)=C(C(=O)Nc2ccccc2OC)C1/C=C/c1ccccc1,> 100 µM (inactive),> 100 µM (inactive),84.9 µM (inactive),> 100 µM (inactive),–,54.8 µM (inactive),–,> 100 µM (inactive),> 100 µM (inactive)
Cc1nc(=O)n2c(C)n[nH]c2c1C(=O)Nc1cc(Cl)cc(Cl)c1,–,–,29.8 µM (inactive),27.3 µM (inactive),–,32.4 µM (inactive),–,19.1 µM (inactive),–
COc1ccc(OC)c2c1C(=O)C1CC1(Br)C2=O (stereo not drawn),–,> 100 µM (inactive),> 100 µM (inactive),> 100 µM (inactive),–,–,> 100 µM (inactive),> 100 µM (inactive),> 100 µM (inactive)
OCCC1(O)CCC(O)CC1 (stereo not drawn),> 100 µM (inactive),–,> 100 µM (inactive),> 100 µM (inactive),–,> 100 µM (inactive),–,> 100 µM (inactive),> 100 µM (inactive)
O=C(CC(=O)N1N=C(n2ccc3ccccc32)CC1c1ccccc1)Nc1ccc(Cl)cc1 (stereo not drawn),> 100 µM (inactive),> 100 µM (inactive),> 100 µM (inactive),> 100 µM (inactive),> 100 µM (inactive),> 100 µM (inactive),–,> 100 µM (inactive),> 100 µM (inactive)
CC1CCC23COC(=O)C2C(O)CCC3C1(C)CC(O)c1ccoc1 (stereo not drawn),> 100 µM (inactive),> 100 µM (inactive),> 100 µM (inactive),> 100 µM (inactive),–,> 100 µM (inactive),> 100 µM (inactive),> 100 µM (inactive),–
C[C@]12CCCC(=O)C1(O)C[C@H](C(=O)O)CC2 (stereo partly drawn),> 100 µM (inactive),> 100 µM (inactive),> 100 µM (inactive),> 100 µM (inactive),> 100 µM (inactive),–,> 100 µM (inactive),> 100 µM (inactive),> 100 µM (inactive)
COc1cccc2c1C(=O)c1c(O)c3c(c(O)c1C2=O)C[C@@](O)(C(=O)CO)CC3OC1CC(N(C)CCOCC(OC(C)=O)OC(C)=O)C(O)C(C)O1 (stereo partly drawn),> 0.01 µM (active),> 0.01 µM (active),> 0.01 µM (active),> 0.01 µM (active),–,–,> 0.01 µM (active),> 0.01 µM (active),–
CCN(CC)CCNc1ccc2nc(C)n3c4ccc(OC)cc4c(=O)c1c23,–,–,1.41 µM (inactive),6.59 µM (inactive),–,–,–,0.463 µM (active),0.695 µM (active)
CC(O)(c1ccc(OCCC[N+](C)(C)C)cc1)C(C)(O)c1ccc(OCCC[N+](C)(C)C)cc1 (stereo not drawn),> 100 µM (inactive),> 100 µM (inactive),> 100 µM (inactive),–,–,> 100 µM (inactive),–,> 100 µM (inactive),> 100 µM (inactive)
COc1cc(C2Oc3cc(-c4oc5cc(O)cc(O)c5c(=O)c4O)ccc3OC2CO)ccc1O (stereo not drawn) [DEHYDROSILYLBIN],–,–,5.26 µM (inactive),14.4 µM (inactive),–,> 46.6 µM (inactive),10.8 µM (inactive),14.5 µM (inactive),5.85 µM (inactive)
